From patent publication US20250066351A1, “PYRAZOLO[1,5-A]PYRIDIN-2,3-YL AMIDES AS KV7 CHANNEL ACTIVATORS” (Biohaven Therapeutics Ltd., priority 2022, published 2025)

These compounds were tested against T1, hKv7.2/7.3 (Homo sapiens, UniProt O43525+O43526) (assay: Kv7.2/7.3 Activation Assay, QPatch planar patch-clamp single concentration screen). Settings: increase in current over baseline, Kv7.2/Kv7.3 co-expressing HEK cells, compound concentration 3 μM, steady-state current at end of 2 s pulse to −30 mV.
T1 construct: host or cells: HEK cells, tetracycline-inducible expression
Format: cell-based
Experimental: The ability of compounds to potentiate K-currents in Kv7.2/7.3 containing HEK cells was assessed using planar patch-clamp on the QPatch automated screening platform.
Cell Line: The hKv7.2/7.3 cell line was obtained from Chantest (Cleveland, OH 44128) cat. #CT6147. These HEK cells will express the Kv7.2/7.3 ion channels when induced.
Cell Culture: Cells were maintained in a media containing DMEM/F12; 50/50 (GIBCO cat. #11330), 10% Fetal Bovine Serum (FBS) (GIBCO cat. #26140), 100 units/mL Penicillin-Streptomycin (GIBCO cat. #15140), 0.005 mg/mL Blasticidin (INVIVOGEN cat. #ant-bl-1), 0.5 mg/mL Geneticin (GIBCO cat. #10131), 0.1 mg/mL Zeocin (GIBCO cat. #R25001). Cells used in the electrophysiology assay were maintained in a media without Blasticidin, Geneticin and Zeocin for 2 days and channel expression was induced by adding tetracycline (BIOLINE cat. #BIO-87030) at a final concentration of […]. Cells were grown in T-175 flask to ˜75% confluency. Currents were recorded 24 hours after channel induction.
Compound Plates: Test compounds were prepared by performing serial dilutions on a Biomek NX^P (BECKMAN COULTER). Final dilutions were made in external recording solution with a final DMSO concentration of 0.1% DMSO. For single concentration screens each plate had 10 μM retigabine as a positive control and 0.1% DMSO as a negative control.
Electrophysiology: On the day of the experiment cells were washed with Hank's Balanced Salt Solution (HBBS) (GIBCO cat. #14175) and harvested with Tryple (GIBCO cat. #12604). Cells were then centrifuged at 2000 rpm for 5 minutes and resuspended in CHO—S-SFM (GIBCO cat. #12052) at […]. Cells were stirred for 30 minutes before experiments were started. External recording solution contained (in mM): NaCl (145), KCl (4), CaCl2 (2), MgCl2 (1), HEPES (10) and Glucose (10); pH was adjusted to 7.4 with NaOH and the osmolarity was adjusted to 300-305 mOsM with sucrose if necessary. Internal solution contained (in mM): KCl (125), KF (10), EGTA (5), Na2ATP (5), MgCl2 (3.2), HEPES (5); pH was adjusted to 7.2 with KOH and the osmolarity was adjusted to 298-302 mOsM with sucrose.
Potassium channel activity was measured on the QPatch HTX (Sophion Bioscience) using QPlates with 48-wells/plate. Each cell was taken as an independent experiment and only one compound was tested per well. Potassium channel activity was elicited by holding at −80 mV and stepping to −30 mV for 2 s followed by a 100 ms pulse to −120 mV.
Single concentration screen: Baseline conditions were obtained by recording 5 sweeps in the external solution only, this was repeated for three applications of the external solution. The effect of test compounds on elicited current was then assessed by recording 5 sweeps in the presence of a 3 μM compound solution. The steady-state current at the end of the 2 s pulse to −30 mV was measured to determine the fold increase from baseline.

SMILES	QPatch Kv7.2/7.3 Activity
C[C@](O)(CC(=O)Nc1nn2ccc(Cl)cc2c1C1CCC1)c1ccccc1 [Example 31, (S)-N-(5-chloro-3-cyclobutylpyrazolo[1,5-a]pyridin-2-yl)-3-hydroxy-3-phenylbutanamide]	+ (2.0-3.99 (+))
CC(C)(C)CC(=O)Nc1nn2c(Cl)cc(Cl)cc2c1-c1ccc(F)cc1 [Example 81, N-(5,7-dichloro-3-(4-fluorophenyl)pyrazolo [1,5-a]pyridin-2-yl)-3,3-dimethylbutanamide]	++ (4.0-5.99 (++))
Cn1cc(-c2c(NC(=O)CC(C)(C)O)nn3ccc(C(F)(F)F)cc23)nn1 [Example 54, 3-hydroxy-3-methyl-N-(3-(1-methyl-1H-1,2,3-triazol-4-yl)-5-(trifluoromethyl)pyrazolo [1,5-a]pyridin-2-yl)butanamide]	− (<1.2-fold (−))
CC(C)(O)CC(=O)Nc1nn2ccc(C#N)cc2c1C1CCC1 [Example 11, N-(5-cyano-3-cyclobutylpyrazolo[1,5-a]pyridin-2-yl)-3-hydroxy-3-methylbutanamide]	+/− (1.2-1.99-fold (+/−))
CC(O)(CC(=O)Nc1nn2ccc(C(F)(F)F)cc2c1C1CCC1)C1CCC1 (centres unmarked) [Example 23, 3-cyclobutyl-N-(3-cyclobutyl-5-(trifluoromethyl)pyrazolo [1,5-a]pyridin-2-yl)-3-hydroxybutanamide]	+ (2.0-3.99 (+))
CC(C)(O)CC(=O)Nc1nn2c(-c3ccc(F)cc3)cccc2c1C1CCC1 [Example 66, N-(3-cyclobutyl-7-(4-fluorophenyl)pyrazolo [1,5-a]pyridin-2-yl)-3-hydroxy-3-methylbutanamide]	− (<1.2-fold (−))
CC(C)(O)CC(=O)Nc1nn2c(C3CC3)cccc2c1C1CCC1 [Example 70, N-(3-cyclobutyl-7-cyclopropylpyrazolo [1,5-a]pyridin-2-yl)-3-hydroxy-3-methylbutanamide]	+ (2.0-3.99 (+))
O=C(CC(O)(CF)CF)Nc1nn2ccc(C(F)(F)F)cc2c1C1CCC1 [Example 83, N-(3-cyclobutyl-5-(trifluoromethyl)pyrazolo[1,5-a]pyridin-2-yl)-4-fluoro-3-(fluoromethyl)-3-hydroxybutanamide]	+ (2.0-3.99 (+))
C[C@](O)(CC(=O)Nc1nn2ccc(C(F)(F)F)cc2c1C1CCC1)c1ccccc1 [Example 29, (S)-N-(3-cyclobutyl-5-(trifluoromethyl)pyrazolo [1,5-a]pyridin-2-yl)-3-hydroxy-3-phenylbutanamide]	++ (4.0-5.99 (++))
CC(C)[C@H](C)C(=O)Nc1nn2ccc(C(F)(F)F)cc2c1C1CCC1 [Example 7, (S)-N-(3-cyclobutyl-5-(trifluoromethyl)pyrazolo [1,5-a]pyridin-2-yl)-2,3-dimethylbutanamide]	+ (2.0-3.99 (+))
C[C@@](O)(CC(=O)Nc1nn2ccc(C#N)cc2c1C1CCC1)c1ccccn1 [Example 36, (R)-N-(5-cyano-3-cyclobutylpyrazolo[1,5-a]pyridin-2-yl)-3-hydroxy-3-(pyridin-2-yl)butanamide]	+ (2.0-3.99 (+))
Cn1ccc(-c2c(NC(=O)CC(C)(C)O)nn3ccc(C(F)(F)F)cc23)n1 [Example 67, 3-hydroxy-3-methyl-N-(3-(1-methyl-1H-pyrazol-3-yl)-5-(trifluoromethyl)pyrazolo [1,5-a]pyridin-2-yl)butanamide]	− (<1.2-fold (−))
CC(C)(C)CC(=O)Nc1nn2ccc(C(F)(F)F)cc2c1C#N [Example 80, N-(3-cyano-5-(trifluoromethyl)pyrazolo [1,5-a]pyridin-2-yl)-3,3-dimethylbutanamide]	− (<1.2-fold (−))
C[C@](O)(CC(=O)Nc1nn2ccc(C#N)cc2c1C1CCC1)c1ccccc1 [Example 30, (S)-N-(5-cyano-3-cyclobutylpyrazolo[1,5-a]pyridin-2-yl)-3-hydroxy-3-phenylbutanamide]	+ (2.0-3.99 (+))
CC(C)(C)CC(=O)Nc1nn2ccc(C(F)(F)F)cc2c1C(C)(C)O [Example 86, N-(3-(2-hydroxypropan-2-yl)-5-(trifluoromethyl)pyrazolo[1,5-a]pyridin-2-yl)-3,3-dimethylbutanamide]	+/− (1.2-1.99-fold (+/−))
CC(C)(C)CC(=O)Nc1nn2cccc(F)c2c1C1CCC1 [Example 60, N-(3-cyclobutyl-4-fluoropyrazolo [1,5-a]pyridin-2-yl)-3,3-dimethylbutanamide]	++ (4.0-5.99 (++))
CC(C)(O)CC(=O)Nc1nn2ccc(Cl)cc2c1-c1ccc(OC(F)(F)F)cc1 [Example 68, N-(5-chloro-3-(4-(trifluoromethoxy)phenyl)pyrazolo[1,5-a]pyridin-2-yl)-3-hydroxy-3-methylbutanamide]	+ (2.0-3.99 (+))

Further lines, results first:

QPatch Kv7.2/7.3 Activity	SMILES
++ (4.0-5.99 (++))	C[C@@](O)(CC(=O)Nc1nn2ccc(C(F)(F)F)cc2c1-c1ccccc1)c1ccccn1 [Example 38, (R)-3-hydroxy-N-(3-phenyl-5-(trifluoromethyl)pyrazolo [1,5-a]pyridin-2-yl)-3-(pyridin-2-yl)butanamide]
++ (4.0-5.99 (++))	C[C@@](O)(CC(=O)Nc1nn2ccc(C(F)(F)F)cc2c1-c1ccc(F)cc1)c1ccccn1 [Example 37, (R)-N-(3-(4-fluorophenyl)-5-(trifluoromethyl)pyrazolo [1,5-a]pyridin-2-yl)-3-hydroxy-3-(pyridin-2-yl)butanamide]
+ (2.0-3.99 (+))	C[C@@](O)(CC(=O)Nc1nn2ccc(Cl)cc2c1-c1ccc(F)cc1)C(F)(F)F [Example 63, (R)-N-(5-chloro-3-(4-fluorophenyl)pyrazolo [1,5-a]pyridin-2-yl)-4,4,4-trifluoro-3-hydroxy-3-methylbutanamide]
+ (2.0-3.99 (+))	C[C@](O)(CC(=O)Nc1nn2ccc(C(F)(F)F)cc2c1-c1ccc(F)cc1)c1ccccn1 [Example 42, (S)-N-(3-(4-fluorophenyl)-5-(trifluoromethyl)pyrazolo [1,5-a]pyridin-2-yl)-3-hydroxy-3-(pyridin-2-yl)butanamide]
+ (2.0-3.99 (+))	C[C@@](O)(CC(=O)Nc1nn2ccc(C(F)(F)F)cc2c1-c1cccc(F)c1)c1ccccn1 [Example 39, (R)-N-(3-(3-fluorophenyl)-5-(trifluoromethyl)pyrazolo [1,5-a]pyridin-2-yl)-3-hydroxy-3-(pyridin-2-yl)butanamide]
+ (2.0-3.99 (+))	CC(C)(O)CC(=O)Nc1nn2c(C(F)(F)F)cccc2c1-c1ccc(F)cc1 [Example 76, N-(3-(4-fluorophenyl)-7-(trifluoromethyl)pyrazolo [1,5-a]pyridin-2-yl)-3-hydroxy-3-methylbutanamide]
+ (2.0-3.99 (+))	Cc1cccc(-c2c(NC(=O)CC(C)(C)O)nn3ccc(C(F)(F)F)cc23)c1 [Example 47, 3-hydroxy-3-methyl-N-(3-(m-tolyl)-5-(trifluoromethyl)pyrazolo [1,5-a]pyridin-2-yl)butanamide]
+ (2.0-3.99 (+))	C[C@](O)(CC(=O)Nc1nn2ccc(Cl)cc2c1-c1ccc(F)cc1)C(F)(F)F [Example 62, (S)-N-(5-chloro-3-(4-fluorophenyl)pyrazolo [1,5-a]pyridin-2-yl)-4,4,4-trifluoro-3-hydroxy-3-methylbutanamide]
− (<1.2-fold (−))	CC(C)(C)CC(=O)Nc1nn2c(C(F)(F)F)cccc2c1-c1ccc(F)cc1 [Example 75, N-(3-(4-fluorophenyl)-7-(trifluoromethyl)pyrazolo [1,5-a]pyridin-2-yl)-3,3-dimethylbutanamide]
